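A five-concentration, 48-hour dose response in 96-well plates underlies each endpoint, interpolated linearly between surrounding concentrations. TGI marks complete inhibition of growth.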
How the values were obtained:
Test in all cases: DTP human tumour cell line panel, 48 h
786-0 renal = test system: 786-0 renal
HOP-62 NSCLC = test system: HOP-62 NSCLC
EKVX NSCLC = test system: EKVX NSCLC
SK-MEL-5 melanoma = test system: SK-MEL-5 melanoma
RXF 393 renal = test system: RXF 393 renal
SK-MEL-2 melanoma = test system: SK-MEL-2 melanoma
UACC-62 melanoma = test system: UACC-62 melanoma
HCT-15 colon = test system: HCT-15 colon
SNB-19 CNS = test system: SNB-19 CNS
COLO 205 colon = test system: COLO 205 colon
A498 renal = test system: A498 renal
NCI-H522 lung = test system: NCI-H522 lung
OVCAR-8 ovarian = test system: OVCAR-8 ovarian
HL-60(TB) leukemia = test system: HL-60(TB) leukemia
K-562 leukemia = test system: K-562 leukemia
SK-MEL-28 melanoma = test system: SK-MEL-28 melanoma
OVCAR-4 ovarian = test system: OVCAR-4 ovarian
HCC-2998 colon = test system: HCC-2998 colon
SF-268 CNS = test system: SF-268 CNS
NCI-H460 lung = test system: NCI-H460 lung
PC-3 prostate = test system: PC-3 prostate
IGROV1 ovarian = test system: IGROV1 ovarian
NCI/ADR-RES ovarian = test system: NCI/ADR-RES ovarian
M14 melanoma = test system: M14 melanoma
UACC-257 melanoma = test system: UACC-257 melanoma
U251 CNS = test system: U251 CNS
RPMI-8226 leukemia = test system: RPMI-8226 leukemia
SF-295 CNS = test system: SF-295 CNS
LOX IMVI melanoma = test system: LOX IMVI melanoma
DU-145 prostate = test system: DU-145 prostate
CCRF-CEM leukemia = test system: CCRF-CEM leukemia
A549 NSCLC = test system: A549 NSCLC
MDA-MB-435 = test system: MDA-MB-435
MDA-N = test system: MDA-N
MOLT-4 leukemia = test system: MOLT-4 leukemia
SNB-75 CNS = test system: SNB-75 CNS
SW-620 colon = test system: SW-620 colon
HCT-116 colon = test system: HCT-116 colon
SN12C renal = test system: SN12C renal
OVCAR-5 ovarian = test system: OVCAR-5 ovarian
OVCAR-3 ovarian = test system: OVCAR-3 ovarian
HT29 colon = test system: HT29 colon
HOP-92 NSCLC = test system: HOP-92 NSCLC
BT-549 breast = test system: BT-549 breast
NCI-H23 lung = test system: NCI-H23 lung
KM12 colon = test system: KM12 colon
T-47D breast = test system: T-47D breast
TK-10 renal = test system: TK-10 renal
ACHN renal = test system: ACHN renal
MDA-MB-231 breast = test system: MDA-MB-231 breast
UO-31 renal = test system: UO-31 renal
MCF7 breast = test system: MCF7 breast
SF-539 CNS = test system: SF-539 CNS
MALME-3M melanoma = test system: MALME-3M melanoma
CAKI-1 renal = test system: CAKI-1 renal
HS 578T breast = test system: HS 578T breast
NCI-H226 lung = test system: NCI-H226 lung
SR leukemia = test system: SR leukemia
SK-OV-3 ovarian = test system: SK-OV-3 ovarian

O=C(NCCCCCCCCNC(=O)Nc1cccc2ccccc12)Nc1cccc2ccccc12
TGI (786-0 renal): 24.9 µM | TGI (HOP-62 NSCLC): 50.6 µM | TGI (EKVX NSCLC): > 100 µM | TGI (SK-MEL-5 melanoma): > 100 µM | TGI (RXF 393 renal): 67.6 µM | TGI (SK-MEL-2 melanoma): > 100 µM | TGI (UACC-62 melanoma): > 100 µM | TGI (HCT-15 colon): > 100 µM | TGI (SNB-19 CNS): > 100 µM | TGI (COLO 205 colon): > 100 µM | TGI (A498 renal): 34.7 µM | TGI (NCI-H522 lung): 87 µM | TGI (OVCAR-8 ovarian): > 100 µM | TGI (HL-60(TB) leukemia): > 100 µM | TGI (K-562 leukemia): 46.7 µM | TGI (SK-MEL-28 melanoma): > 100 µM | TGI (OVCAR-4 ovarian): 4.18 µM | TGI (HCC-2998 colon): > 100 µM | TGI (SF-268 CNS): 45.8 µM | TGI (NCI-H460 lung): 13.4 µM | TGI (PC-3 prostate): > 100 µM | TGI (IGROV1 ovarian): > 100 µM | TGI (NCI/ADR-RES ovarian): > 100 µM | TGI (M14 melanoma): > 100 µM | TGI (UACC-257 melanoma): > 100 µM | TGI (U251 CNS): 8.49 µM | TGI (RPMI-8226 leukemia): > 100 µM | TGI (SF-295 CNS): > 100 µM | TGI (LOX IMVI melanoma): 59.1 µM | TGI (DU-145 prostate): > 100 µM | TGI (CCRF-CEM leukemia): 48.7 µM | TGI (A549 NSCLC): > 100 µM | TGI (MDA-MB-435): 81.3 µM | TGI (MDA-N): > 100 µM | TGI (MOLT-4 leukemia): > 100 µM | TGI (SNB-75 CNS): > 100 µM | TGI (SW-620 colon): 47.3 µM | TGI (HCT-116 colon): > 100 µM | TGI (SN12C renal): 59.3 µM | TGI (OVCAR-5 ovarian): > 100 µM | TGI (OVCAR-3 ovarian): > 100 µM | TGI (HT29 colon): > 100 µM | TGI (HOP-92 NSCLC): 36 µM | TGI (BT-549 breast): > 100 µM | TGI (NCI-H23 lung): > 100 µM | TGI (KM12 colon): > 100 µM | TGI (T-47D breast): > 100 µM | TGI (TK-10 renal): > 100 µM | TGI (ACHN renal): > 100 µM | TGI (MDA-MB-231 breast): 23.3 µM | TGI (UO-31 renal): 47.5 µM | TGI (MCF7 breast): > 100 µM | TGI (SF-539 CNS): 24.6 µM | TGI (MALME-3M melanoma): > 100 µM | TGI (CAKI-1 renal): > 100 µM | TGI (HS 578T breast): > 100 µM

O=S(=O)(c1ccccc1)C1CC(c2nc3ccccc3[nH]2)=NO1 (stereo unspecified)
TGI (HOP-62 NSCLC): > 100 µM | TGI (EKVX NSCLC): > 100 µM | TGI (SK-MEL-5 melanoma): > 100 µM | TGI (RXF 393 renal): > 100 µM | TGI (NCI-H226 lung): > 100 µM | TGI (SK-MEL-2 melanoma): > 100 µM | TGI (UACC-62 melanoma): > 100 µM | TGI (HCT-15 colon): > 100 µM | TGI (SNB-19 CNS): > 100 µM | TGI (COLO 205 colon): > 100 µM | TGI (A498 renal): > 100 µM | TGI (NCI-H522 lung): > 100 µM | TGI (OVCAR-8 ovarian): > 100 µM | TGI (K-562 leukemia): > 100 µM | TGI (SK-MEL-28 melanoma): > 100 µM | TGI (SR leukemia): > 100 µM | TGI (OVCAR-4 ovarian): > 100 µM | TGI (HCC-2998 colon): > 100 µM | TGI (SF-268 CNS): > 100 µM | TGI (NCI-H460 lung): > 100 µM | TGI (PC-3 prostate): > 100 µM | TGI (IGROV1 ovarian): > 100 µM | TGI (NCI/ADR-RES ovarian): > 100 µM | TGI (UACC-257 melanoma): > 100 µM | TGI (U251 CNS): > 100 µM | TGI (RPMI-8226 leukemia): > 100 µM | TGI (SF-295 CNS): > 100 µM | TGI (LOX IMVI melanoma): > 100 µM | TGI (DU-145 prostate): > 100 µM | TGI (CCRF-CEM leukemia): 82.6 µM | TGI (A549 NSCLC): > 100 µM | TGI (MDA-MB-435): > 100 µM | TGI (MDA-N): > 100 µM | TGI (MOLT-4 leukemia): > 100 µM | TGI (SNB-75 CNS): > 100 µM | TGI (SK-OV-3 ovarian): > 100 µM | TGI (SW-620 colon): > 100 µM | TGI (HCT-116 colon): > 100 µM | TGI (SN12C renal): > 100 µM | TGI (OVCAR-5 ovarian): > 100 µM | TGI (OVCAR-3 ovarian): > 100 µM | TGI (HT29 colon): > 100 µM | TGI (HOP-92 NSCLC): > 100 µM | TGI (BT-549 breast): > 100 µM | TGI (NCI-H23 lung): > 100 µM | TGI (T-47D breast): > 100 µM | TGI (TK-10 renal): > 100 µM | TGI (ACHN renal): > 100 µM | TGI (MDA-MB-231 breast): > 100 µM | TGI (UO-31 renal): > 100 µM | TGI (MCF7 breast): > 100 µM | TGI (SF-539 CNS): > 100 µM | TGI (MALME-3M melanoma): > 100 µM | TGI (CAKI-1 renal): > 100 µM | TGI (HS 578T breast): > 100 µM
